Measurements from patent US5770604A, “Aconitine compound and an antipyretic/analgesic/anti-inflammatory agent” (priority 1994, dated 1998).

Experiments:
Assay type in all cases: in vivo, mice (Std:ddY, male)
[1] = tested on: pain threshold (tail-pressure); assay: Tail-pressure method, comparison with morphine (i.v.); conditions: for Inhibition rate: mean ± standard error
Method: (2) Comparison with Morphine
Std:ddY Strain male mice (20-25 g) were fasted for one day before the experiment, and were used. In this experiment, the tartaric acid salt of a compound of number (2) in Table 1 and morphine hydrochloride as a possitive control were used. This tartaric acid salt was dissolved in 0.9% physiological saline solution at the rates of 5 mg/2 ml, 3 mg/2 ml and 1 mg/2 ml. Morphine hydrochloride was dissolved in 0.9% physiological saline solution at the rates of 5 mg/2 ml, 3 mg/2 ml and 1 mg/2 ml. As a negative control, 0.9% phisiological saline solution was used. A tail-pressure apparatus was used in this experiments. Before the administration of test compounds, the pain threshold was measured twice at intervals of 30 minutes and those mice indicating a pain threshold of 50 to 100 mmHg were selected and used. The pain threshold of each mouse was measured at 10, 20 and 30 minutes after test compound solution mentioned above was administered at 2 ml/kg, i.v. 0.9% Physiological saline solution as a control was administered i.v. The results were described as an inhibition rate (%) indicating in the preceding paragraph (1).

[2] = tested on: nociceptive response (licking); assay: Analgesic activity by the hot-plate method; conditions: mouse, 52° C. plate, solution 10 mg/10 ml, mean ± standard error
Method: Measurement of Analgesic Activity by the Hot-Plate Method
Std:ddY Strain male mice (20-25 g) were fasted for one day before the experiment, and were used. After compounds shown in Table 1 were formed to the tartaric acid salts, these compounds were dissolved in 0.9% physiologocal saline solution at the rate of 10 mg/10 ml, respectively and these solution were used as test compound solution. In a control, 0.9% physiological saline solution was used. Mice were placed on a cyrindric hot plate (diameter: 22 cm, height: 11 cm) made of copper which was fixed in a water bath adjusted to 52° C. so that each animal's four paws came into contact with the plate and the time taken to show the nociceptive response (licking) as an index of pain was measured. Mice showing response latency above 25 seconds were excluded from the experiment. To prevent a burn damage of mouse tissue by heating, cutoff time of 50 seconds was defined. The results were described as an inhibition rate (%) obtained from the following equation.
Inhibition rate (%)=(A-B)×100/(50-B)
A: Response latency (seconds) after the administration of test compound solution
B: Response latency (seconds) before the administration of test compound solution

[3] = tested on: pain threshold (tail-pressure); assay: Tail-pressure method, experiment combined with morphine administration; conditions: for Inhibition rate: mean ± standard error, n = 7
Method: (3) Experiment Combined with Morphine Administration
Std:ddY Strain male mice (20-25 g) were fasted for one day before the experiment, and were used. In this experiment, the tartaric acid salt of a compound of number (2) in Table 1 and morphine hydrochloride were used. The tartaric acid salt of a compound of number (2) was dissolved in 0.9% physiological saline solution at the rate of 7 mg/10 ml. Morphine hydrochloride was dissolved in 0.9% physiological saline solution at the rates of 5 mg/2 ml, 3 mg/2 ml and 1 mg/2 ml. As a control, 0.9% phisiological saline solution was used. A tail-pressure apparatus was used in this experiments. Before the administration of test compounds, the pain threshold was measured twice at intervals of 30 minutes and those mice indicating a pain threshold of 50 to 100 mmHg were selected and used. Mice was divided in the following four groups, (i) control group, (ii) the administration group of the tartaric acid salt of a compound of number (2), (iii) the administration group of morphine hydrochloride and (iv) the combined administration group with the tartaric acid salt of a compound of number (2) and morphine hydrochloride. In the administration group of the tartaric acid salt of a compound of number (2), 0.9% physiological saline solution of this tartaric acid salt mentioned above was injected s.c. at the rate of 10 ml/kg and, 30 minutes later, 0.9% physiological saline solution was injected i.v. at the rate of 2 ml/kg. In the administration group of morphine hydrochloride, 0.9% physiological saline solution was injected s.c. at the rate of 10 ml/kg and, 30 minutes later, the above physiological saline solution of morphine hydrochloride was injected i.v. at the rate of 2 ml/kg. In the combined administration group with the tartaric acid salt of a compound of number (2) and morphine hydrochloride,the above physiological saline solution of the tartaric acid salt of a compound of number (2) was injected s.c. at the rate of 10 ml/kg and, 30 minutes later, the above physiological saline solution of morphine hydrochloride was injected i.v. at the rate of 2 ml/kg. In control group, 0.9% physiological saline solution was injected s.c. at the rate of 10 ml/kg and, 30 minutes later, 0.9% physiological saline solution was injected i.v. at the rate of 2 ml/kg. Each pain threshold was measured 10, 20 and 30 minutes after an intravenous injection. The results were described in Table 9 as an inhibition rate (%) indicating in the preceding paragraph (1).

With `CCN1CC2(COC)C(O)CC(OC)C34C5CC6(O)C(OC)C(OC(C)=O)C(O)(C5C6OC(=O)c5ccc(Cl)cc5)C(C(OC)C23)C14` (stereo not drawn) [(2), 15-O-acetyl-14-O-p-chlorobenzoylaconine] the Inhibition rate ([1]; 1 mg/kg i.v., 10 minutes) was 5 ± 4%, the Inhibition rate ([1]; 1 mg/kg i.v., 20 minutes) was 4 ± 4% and the Inhibition rate ([1]; 1 mg/kg i.v., 30 minutes) was 2 ± 3%. The Inhibition rate ([1]; 3 mg/kg i.v., 10 minutes) was 14 ± 15%, the Inhibition rate ([1]; 3 mg/kg i.v., 20 minutes) was 16 ± 10% and the Inhibition rate ([1]; 3 mg/kg i.v., 30 minutes) was 12 ± 12%. For the same compound, the Inhibition rate ([1]; 5 mg/kg i.v., 10 minutes) was 38 ± 13%, the Inhibition rate ([1]; 5 mg/kg i.v., 20 minutes) was 27 ± 6% and the Inhibition rate ([1]; 5 mg/kg i.v., 30 minutes) was 22 ± 7%. For the same compound, the “analgesic activity compared with morphine, in words” value ([1]; mouse, i.v.) was “had an equal analgesic activity in its strength to morphine”, the “Inhibition rate (hot-plate method)” value [2] was 76 ± 11% and the Inhibition rate ([3]; compound (2) 7 mg/kg s.c. alone (morphine 0), 10 min after i.v. injection) was 30 ± 11%. It also gave an Inhibition rate ([3]; compound (2) 7 mg/kg s.c. alone (morphine 0), 20 min after i.v. injection) of 35 ± 12%, an Inhibition rate ([3]; compound (2) 7 mg/kg s.c. alone (morphine 0), 30 min after i.v. injection) of 37 ± 11% and an Inhibition rate ([3]; compound (2) 7 mg/kg s.c. combined with morphine 1 mg/kg i.v., 10 min) of 31 ± 12%. The Inhibition rate ([3]; compound (2) 7 mg/kg s.c. combined with morphine 1 mg/kg i.v., 20 min) was 36 ± 10%, the Inhibition rate ([3]; compound (2) 7 mg/kg s.c. combined with morphine 1 mg/kg i.v., 30 min) was 32 ± 7% and the Inhibition rate ([3]; compound (2) 7 mg/kg s.c. combined with morphine 3 mg/kg i.v., 10 min) was 47 ± 8%. The Inhibition rate ([3]; compound (2) 7 mg/kg s.c. combined with morphine 3 mg/kg i.v., 20 min) was 50 ± 9%, the Inhibition rate ([3]; compound (2) 7 mg/kg s.c. combined with morphine 3 mg/kg i.v., 30 min) was 38 ± 12% and the Inhibition rate ([3]; compound (2) 7 mg/kg s.c. combined with morphine 5 mg/kg i.v., 10 min) was 73 ± 13%. The Inhibition rate ([3]; compound (2) 7 mg/kg s.c. combined with morphine 5 mg/kg i.v., 20 min) was 77 ± 9%, the Inhibition rate ([3]; compound (2) 7 mg/kg s.c. combined with morphine 5 mg/kg i.v., 30 min) was 78 ± 9% and the “effect on the analgesic effect of morphine, in words” value ([3]; mouse, compound s.c., morphine i.v.) was “greatly potentiated the analgesic effect of morphine”.
